Measurements taken from patent US11952364B2, “TRK inhibitors useful as anticancer drugs” (TYLIGAND BIOSCIENCE (SHANGHAI) LIMITED, priority 2018, dated 2024).

These molecules were tested on Ba/F3 ETV6-NTRK2-G639R cells (assay: Proliferation of Ba/F3 ETV6-NTRK2-G639R cells (CellTiter-Glo)). Conditions: Mus musculus, BaF3; Table 6; 72 hours.
Assay type: cell-based
From the text: Ba/F3 ETV6-NTRK2-G639R is a stable transgenic cell line constructed by KYinno Biotechnology Co., Ltd. on mouse primary B cell Ba/F3 wherein NTRK2 is highly expressed with a mutation of G at position 639 to R, and fused with ETV6 to form ETV6-NTRK2. • [Test method]: Promega's CellTiter-Glo® Luminescent Cell Viability Assay kit was used to evaluate the inhibitory activity of the compounds on the proliferation of Ba/F3 ETV6-NTRK2-G639R cells. • [Instrument]: Spectramax M3 multifunctional microplate reader from Molecular Devices. • [Test materials]: Ba/F3 ETV6-NTRK2-G639R cell line (constructed by KYinno Biotechnology Co., Ltd. (Beijing)), 96-well transparent flat-bottomed black-walled cell culture plate (Corning, catalog #3603), RPMI-1640 media (GE, cat #SH30027.01), fetal bovine serum FBS (Thermo Fisher, cat #10099-141), CellTiter-Glo® Luminescent Cell Viability Assay kit (Promega, cat #G7572), PBS (Solarbio, cat #P1020), DMSO (Sigma, cat #D2650). • [Experimental procedure]: When resuscitating Ba/F3 ETV6-NTRK2-G639R cells, the freezing tube was quickly shaken in a 37° C. water bath to melt within 1 minute. The thawed cell suspension was mixed uniformly with RPMI1640 medium containing 10% FBS, centrifuged at 1000 rpm for 5 minutes, and the supernatant discarded. 5 mL of complete medium (RPMI1640 medium with 10% FBS) was taken to resuspend the cell pellets, charged into a cell culture flask with a bottom area of 25 cm^2, and incubated in a cell incubator at 37° C., 95% humidity and 5% CO2. Cells were allowed to passage when the number of cells reached about 10^6 cells/mL. For cell passage, the old cell suspension was directly pipetted evenly, 1/5 of the cell suspension was kept, 4 mL of new complete medium was added, after pipetting evenly, the cell flask was placed in the cell incubator for further culturing. Cell plating was performed when the number of cells reached about 10^6 cells/mL again. For cell plating, 1/5 of the cell suspension was kept for further culturing as in the cell passage method, and the remaining 4/5 of the cell suspension was placed in a 15 mL centrifuge tube, detected for cell viability by Trypan blue exclusion method to ensure that cell viability was above 90%. A cell suspension with a density of 5.56×10^4 viable cells/mL was prepared with complete medium, and 90 μL of such cell suspension was added to a 96-well cell culture plate to obtain the cell density of 5000 viable cells/mL in the cell culture plate. A control group containing no cells, no compound and only complete medium (i.e. culture medium control) and a control group containing no compound but containing cells (i.e. cell control) were set. The cell plate was placed in a cell incubator overnight. The 10 mM compound stock solution in DMSO was first serially diluted with DMSO at a dilution factor of 3.16 times, to obtain 9 concentrations, and the 10th concentration was set as DMSO control without compound. Then, PBS was used to dilute the DMSO solutions of compounds of different concentrations, at a dilution factor of 100 times, so that the DMSO concentration in the compound solution of each concentration was 1%. Finally, 10 μL of each of the above solutions was added to the corresponding cell culture plate, so that the initial compound concentration was 10 μM, with the remaining concentrations being successively diluted at a dilution factor of 3.16 times, and the DMSO content in the cell culture plate was 0.1%. The cell plate was placed in a cell incubator and cultured for 72 hours. For endpoint detection, the CellTiter-Glo reagent was melted, and the cell plate was moved to room temperature to equilibrate for 30 minutes, added with 100 μL of CellTiter-Glo for each well, and shaken on an orbital shaker for 5 minutes to fully lyse the cells. The plate was kept at room temperature for 20 minutes to stabilize the luminescence signal, and the luminescence value of each well was scanned with a multi-functional microplate reader at full wavelength. • [Test samples] […]

IC50 [µM]	Compound
1.88	Cn1ncc2cc(Oc3ccc(NC(=O)c4ccc(C5CC5)n(-c5ccc(F)cc5)c4=O)cc3F)c(-c3cn[nH]c3)cc21 [Example 2, N-(3-fluoro-4-(1-methyl-6-(1H-pyrazol-4-yl)-1H-indazol-5-yloxy)phenyl)-1-(4-fluorophenyl)-6-cyclopropyl-2-oxo-1,2-dihydmpyridine-3-carboxamide]
3.04	Cc1ccc(C(=O)Nc2ccc(Oc3cc4cnn(C)c4cc3-c3cn[nH]c3)c(F)c2)c(=O)n1-c1ccc(F)cc1 [Merestinib, reference compound]
> 10	Cc1ccc(C(=O)Nc2ccc(Oc3cc4cnn(C(C)C)c4cc3-c3cn[nH]c3)c(F)c2)c(=O)n1-c1ccc(F)cc1 [Example 4, N-(3-fluoro-4-(1-isopropyl-6-(1H-pyrazol-4-yl)-1H-indazol-5-yloxy)phenyl)-1-(4-fluorophenyl)-6-methyl-2-oxo-1,2-dihydmpyridine-3-carboxamide]
9.87	CCn1ncc2cc(Oc3ccc(NC(=O)c4ccc(C)n(-c5ccc(F)cc5)c4=O)cc3F)c(-c3cn[nH]c3)cc21 [Example 3, N-(3-fluoro-4-(1-ethyl-6-(1H-pyrazol-4-yl)-1H-indazol-5-yloxy)phenyl)-1-(4-fluorophenyl)-6-methyl-2-oxo-1,2-dihydmpyridine-3-carboxamide]
3.12	Cn1ncc2cc(Oc3ccc(NC(=O)c4ccc(C(F)(F)F)n(-c5ccc(F)cc5)c4=O)cc3F)c(-c3cn[nH]c3)cc21 [Example 1, N-(3-fluoro-4-(1-methyl-6-(1H-pyrazol-4-yl)-1H-indazol-5-yloxy)phenyl)-1-(4-fluorophenyl)-6-trifluoromethyl-2-oxo-1,2-dihydmpyridine-3-carboxamide monomethanesulfonate]
2.79	CC(C)c1ccc(C(=O)Nc2ccc(Oc3cc4cnn(C)c4cc3-c3cn[nH]c3)c(F)c2)c(=O)n1-c1ccc(F)cc1 [Example 6, N-(3-fluoro-4-(1-methyl-6-(1H-pyrazol-4-yl)-1H-indazol-5-yloxy)phenyl)-1-(4-fluorophenyl)-6-isopropyl-2-oxo-1,2-dihydropyridine-3-carboxamide]
2.69	CCc1ccc(C(=O)Nc2ccc(Oc3cc4cnn(C)c4cc3-c3cn[nH]c3)c(F)c2)c(=O)n1-c1ccc(F)cc1 [Example 5, N-(3-fluoro-4-(1-methyl-6-(1H-pyrazol-4-yl)-1H-indazol-5-yloxy)phenyl)-1-(4-fluorophenyl)-6-ethyl-2-oxo-1,2-dihydropyridine-3-carboxamide]
> 10	O=C(Nc1cnn2ccc(N3CCC[C@@H]3c3cc(F)ccc3F)nc12)N1CC[C@H](O)C1 [LOXO-101, Larotrectinib, reference compound]
